From publication PMC4174574 (Molecular cancer therapeutics, 2013)

Assays:
cellular Mcl-1 = cellular Mcl-1 (Homo sapiens, UniProt Q07820); assay: Biotin-labeled Noxa BH3 peptide streptavidin pull-down from 2LMP cell lysate; assay type: binding
BxPC-3 cells [1] = conditions: BxPC-3, 24 h, 3 and 10 μM, densitometry
Mcl-1 [2] = molecular target: T1, Mcl-1 (Homo sapiens, UniProt Q07820); assay type: binding
Bcl-2 [3] = molecular target: T2, Bcl-2 (Homo sapiens, UniProt P10415); assay: FP-based competitive binding assay using fluorescent labeled Bid BH3 peptide
BxPC-3 cells [4] = conditions: BxPC-3, 24 h, anti-Bax 6A7
Panc-1 cells [5] = assay: Induction of apoptosis, Annexin V/PI double staining flow cytometry; assay type: cell-based, human
BxPC-3 cells [6] = assay: Induction of apoptosis; conditions: BxPC-3 transfected with control siRNA, 3.5 μM, 72 h
Bcl-xL [7] = molecular target: T3, Bcl-xL (Homo sapiens, UniProt Q07817); conditions: solution competitive SPR, immobilized Bid peptide
A1/Bfl-1 = molecular target: T4, A1/Bfl-1 (Homo sapiens, UniProt Q16548); assay: FP-based competitive binding assay using fluorescent labeled Bid BH3 peptide; conditions: for Ki: read-out: Ki ± SD, A1/Bfl-1, competitive FP assay, Bid BH3 peptide
T4 sequence (Q16548 1-175): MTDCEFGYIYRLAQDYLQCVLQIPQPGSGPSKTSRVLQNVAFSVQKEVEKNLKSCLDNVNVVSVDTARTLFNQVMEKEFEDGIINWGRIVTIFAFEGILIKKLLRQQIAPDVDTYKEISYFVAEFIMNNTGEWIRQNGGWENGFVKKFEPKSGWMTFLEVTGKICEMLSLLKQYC

BxPC-3 xenograft = BxPC-3 xenograft efficacy in SCID mice; assay type: in vivo; conditions: 60 mg/kg i.v.; for Tumor growth inhibition in comparison with controls: 5 days a week for two weeks
[8] = tested on: Bax/Bak-deficient (DKO) MEFs; conditions: 10 μM, 24 h
SCID mice = conditions: mouse, in vivo
MiaPaCa-2 = conditions: read-out: IC50 cell growth inhibition, MiaPaCa-2; 4 days treatment
[9] = tested on: wild type (WT) murine embryonic fibroblasts (MEF); conditions: 10 μM, 24 h
BxPC-3 = conditions: read-out: IC50 cell growth inhibition, BxPC-3; 4 days treatment
Mcl-1 [10] = molecular target: T1, Mcl-1; assay: FP-based competitive binding assay using fluorescent labeled Bid BH3 peptide
[11] = Metabolic stability in pooled mice liver microsomes; assay type: in vitro ADME
Panc-1 = conditions: read-out: IC50 cell growth inhibition, Panc-1; 4 days treatment
AsPC-1 cells = conditions: AsPC-1, highest tested concentration 20 μM
Bcl-xL [12] = molecular target: T3, Bcl-xL; assay: FP-based competitive binding assay using fluorescent labeled Bid BH3 peptide
Bcl-w = molecular target: T5, Bcl-w (Homo sapiens, UniProt Q92843); assay: as above; conditions: for Ki: read-out: Ki ± SD, Bcl-w, competitive FP assay, Bid BH3 peptide
T5 sequence (Q92843 1-193): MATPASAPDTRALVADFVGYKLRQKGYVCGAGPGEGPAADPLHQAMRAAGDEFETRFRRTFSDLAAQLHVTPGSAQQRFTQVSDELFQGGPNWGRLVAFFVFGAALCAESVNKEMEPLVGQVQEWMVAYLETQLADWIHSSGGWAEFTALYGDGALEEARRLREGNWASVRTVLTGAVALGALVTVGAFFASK

Panc-1 cells [13] = conditions: Panc-1, 24 h, anti-Bax 6A7
[14] = molecular target: Mcl-1/Bax and Mcl-1/Bak in BxPC-3 cells (Homo sapiens, UniProt Q07820); conditions: BxPC-3, 4 μM, 24 h
AsPC-1 = conditions: read-out: IC50 cell growth inhibition, AsPC-1; 4 days treatment
BxPC-3 cells [15] = assay: Cell growth inhibition; conditions: BxPC-3 transfected with control siRNA, 3.5 μM, 72 h
Panc-1 cells [16] = conditions: Panc-1, 24 h treatment
Bcl-2 [17] = molecular target: T2, Bcl-2; conditions: solution competitive SPR, immobilized Bid peptide
Capan-2 = conditions: read-out: IC50 cell growth inhibition, Capan-2; 4 days treatment
Mcl-1 [18] = molecular target: T1, Mcl-1; conditions: cited from earlier work

T2 sequence (P10415 whole entry): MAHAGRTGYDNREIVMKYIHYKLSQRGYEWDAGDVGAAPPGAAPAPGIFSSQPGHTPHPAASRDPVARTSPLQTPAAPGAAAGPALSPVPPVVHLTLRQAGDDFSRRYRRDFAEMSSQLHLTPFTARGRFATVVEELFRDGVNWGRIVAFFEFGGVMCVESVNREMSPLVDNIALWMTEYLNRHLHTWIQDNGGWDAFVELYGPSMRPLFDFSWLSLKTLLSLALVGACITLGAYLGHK
T3 sequence (Q07817 whole entry): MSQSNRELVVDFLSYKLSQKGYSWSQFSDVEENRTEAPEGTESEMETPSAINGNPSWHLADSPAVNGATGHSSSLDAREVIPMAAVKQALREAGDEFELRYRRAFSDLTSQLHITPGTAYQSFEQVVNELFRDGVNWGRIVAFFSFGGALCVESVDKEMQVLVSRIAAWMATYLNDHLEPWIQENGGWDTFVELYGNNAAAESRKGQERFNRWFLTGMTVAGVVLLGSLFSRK
T1 sequence (Q07820 whole entry): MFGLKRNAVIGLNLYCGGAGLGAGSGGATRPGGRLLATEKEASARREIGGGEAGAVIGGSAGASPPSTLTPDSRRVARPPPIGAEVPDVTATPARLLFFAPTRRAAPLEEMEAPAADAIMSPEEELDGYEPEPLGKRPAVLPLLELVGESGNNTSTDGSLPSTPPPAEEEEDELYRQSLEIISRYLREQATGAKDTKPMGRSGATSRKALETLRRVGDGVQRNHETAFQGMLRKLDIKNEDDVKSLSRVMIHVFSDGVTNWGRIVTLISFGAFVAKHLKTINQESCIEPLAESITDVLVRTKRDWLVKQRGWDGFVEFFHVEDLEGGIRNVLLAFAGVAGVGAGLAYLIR
cellular Mcl-1, sequence (Q07820 whole entry): as above
Mcl-1/Bax and Mcl-1/Bak in BxPC-3 cells, sequence (Q07820 whole entry): as above

## O=C(O)CSc1cc(NS(=O)(=O)c2ccc(Br)cc2)c2ccccc2c1O [UMI-77]
Cellular Mcl-1
  Concentration from which BL-Noxa / cellular Mcl-1 interaction is blocked: ≥ 10 µM
  Disruption of BL-Noxa / cellular Mcl-1 interaction: effectively disrupt the interactions between BL-Noxa and cellular Mcl-1 in a dose dependent manner
BxPC-3 cells [1]
  Cleaved caspase-3 versus DMSO control: statistically significant cleaved caspase-3 versus DMSO control
Mcl-1 [2]; SPR IC50 ratio
  Fold improved binding affinity to Mcl-1 in comparison with UMI-59 (SPR): 4 fold
Mcl-1 [2]; read-out: IC50, Mcl-1 (SPR), solution competitive SPR, immobilized Bid peptide
  IC50: 0.31 µM
Bcl-2 [3]; FP Ki ratio
  Fold reduced binding to Bcl-2 vs Mcl-1: more than 50 fold
Bcl-2 [3]; read-out: Ki ± SD, Bcl-2, competitive FP assay, Bid BH3 peptide
  Ki: 23.8 ± 1.81 µM
BxPC-3 cells [4]
  Concentration from which activated Bax is substantially increased: ≥ 5 µM
Panc-1 cells [5]; Panc-1, 5 μM, 24 hours
  Early apoptotic cells: 15%
Panc-1 cells [5]; Panc-1, 5 μM, 48 hours
  Early apoptotic cells: 21%
Panc-1 cells [5]; Panc-1, 10 μM, 24 hours
  Early apoptotic cells: 21%
Panc-1 cells [5]; Panc-1, 10 μM, 48 hours
  Early apoptotic cells: 49%
BxPC-3 cells [6]
  Induction of apoptosis: 7 fold
Bcl-xL [7]
  Fold decreased binding to Bcl-xL vs Mcl-1 (SPR): more than 30 fold
A1/Bfl-1; FP Ki ratio
  Fold lower affinity to A1/Bfl-1 than to Mcl-1: 11 fold
A1/Bfl-1
  Ki: 5.33 ± 1 µM
BxPC-3 xenograft
  Positive apoptotic cells of tumor sections (TUNEL) vs control group: significantly increased
  Survivin in tumor tissue lysates (western blot): significant decrease of survivin
BxPC-3 xenograft; day 19 (p < 0.0001)
  Tumor growth inhibition in comparison with controls: 65%
BxPC-3 xenograft; day 22 (p < 0.003)
  Tumor growth inhibition in comparison with controls: 56%
[8]
  Apoptotic cells in MEF DKO cells: 16%
SCID mice
  Histopathology (H&E) of kidney, liver and pancreas: did not cause damage
MiaPaCa-2
  IC50: 12.5 µM
[9]
  Apoptosis in MEF WT cells: more than 60%
BxPC-3
  IC50: 3.4 µM
Mcl-1 [10]; FP Ki ratio
  Potency for binding to Mcl-1 relative to 1 (UMI-59): three times higher potency
Mcl-1 [10]; read-out: Ki ± SD, Mcl-1, competitive FP assay, Bid BH3 peptide
  Ki: 0.49 ± 0.06 µM
[11]
  Microsomal half-life (T1/2): 45 min
Panc-1
  IC50: 4.4 µM
AsPC-1 cells
  Induction of early apoptosis: 8%
Bcl-xL [12]; FP Ki ratio
  Fold reduced binding to Bcl-xL vs Mcl-1: more than 50 fold
Bcl-xL [12]; read-out: Ki ± SD, Bcl-xL, competitive FP assay, Bid BH3 peptide
  Ki: 33 ± 4.33 µM
Bcl-w; FP Ki ratio
  Fold decreased binding to Bcl-w vs Mcl-1: 17 fold
Bcl-w
  Ki: 8.19 ± 1.91 µM
Panc-1 cells [13]
  Concentration from which activated Bax is substantially increased: ≥ 5 µM
[14]
  Endogenous protein-protein interactions of Bax and Bak with Mcl-1: inhibition of the endogenous protein-protein interactions of Bax and Bak with Mcl-1
AsPC-1
  IC50: 16.1 µM
BxPC-3 cells [15]
  Cell growth inhibition: 50%
Panc-1 cells [16]
  Concentration from which cytochrome c and Smac are released from mitochondria: ≥ 10 µM
Bcl-2 [17]
  Fold decreased binding to Bcl-2 vs Mcl-1 (SPR): more than 30 fold
Capan-2
  IC50: 5.5 µM

## O=C(O)CSc1cc(NS(=O)(=O)c2cccs2)c2ccccc2c1O [UMI-59]
Cellular Mcl-1
  Disruption of BL-Noxa / cellular Mcl-1 interaction: effectively disrupt the interactions between BL-Noxa and cellular Mcl-1 in a dose dependent manner
A1/Bfl-1
  Ki: 6.14 ± 1 µM
Bcl-w
  Ki: 37.5 ± 7.96 µM

## CN(C)CC[C@H](CSc1ccccc1)Nc1ccc(S(=O)(=O)NC(=O)c2ccc(N3CCN(Cc4ccccc4-c4ccc(Cl)cc4)CC3)cc2)cc1[N+](=O)[O-] [ABT-737]
Mcl-1 [18]
  Binding to Mcl-1: fails to bind
